Data: ChEMBL document CHEMBL3507680, “University of Dundee, Gates Library screen for HepG2 cell viability”

assay: Human HepG2 cell viability assay in 384 well format; format: toxicity, cell-based; parameters: dose 125 nL, time 70.5 hour; concentration not given beside the values; conditions: HepG2 cells, read-out: Inhibition

Row | Compound | cytotoxicity at 70.5 h
1 | Cn1cc(S(=O)(=O)NCCc2nnc3ccccn23)cn1 | -4.25%
2 | O=C(Nc1cc(Cl)ccc1Cl)NC1CCN(C2CCOC2)CC1 (centres undefined) | 25.3%
3 | O=C(c1ccc[nH]1)N(Cc1ccc(O)cc1)CC1CC1 | 20.8%
4 | CN(C)C1CN(C(=O)Nc2cccc(OC(F)F)c2)C1 | 17.6%
5 | CN(C)c1cccc(CNC(=O)Nc2ccc3[nH]nnc3c2)n1 | -2.68%
6 | CC(C)Cn1cnc(S(=O)(=O)NCCc2nnc3ccccn23)c1 | 15.7%
7 | CS(=O)(=O)N1CCC(OCCCc2ccccc2)C1 (centres undefined) | 3.28%
8 | COCCN(Cc1ccccc1)Cc1nc(-c2ccsc2)no1 | -3.79%
9 | Cc1cnn(CC2CCCCN2c2ncnc3ccccc23)c1 (centres undefined) | -5.59%
10 | Cc1nc(CNC(C(=O)N2CCOCC2)c2ccccc2)cs1 (centres undefined) | -6.01%
11 | Cc1cnn(CC2CCCN2c2ncnc3ccccc23)c1 (centres undefined) | 9.14%
12 | Cc1cccc(OCCNC(=O)C(C)S(=O)(=O)c2ccccn2)c1 (centres undefined) | -2.85%
13 | CN(C)S(=O)(=O)c1ccc(CNC(=O)C2CC2)cc1 | 1.13%
14 | O=C(CN1CCS(=O)(=O)CC1)NCc1cccc(Br)c1 | -2.1%
15 | Cn1cnnc1CNC(=O)C1CCCN(Cc2ccccc2)C1 (centres undefined) | 0.292%
16 | N#CC1(NC(=O)Cn2nnc(-c3cc4ccccc4o3)n2)CCCC1 | -11.5%
17 | Cc1nc(NC(=O)C2CCCN(C(N)=O)C2)sc1-c1ccccc1 (centres undefined) | 28.7%
18 | COCCCNC(=O)Cn1nnc(-c2cc3ccccc3o2)n1 | -13.2%
19 | Cc1ccc(Cl)cc1S(=O)(=O)NCc1cnc(N(C)C)n1C | -11.7%
20 | Cc1c(Cl)cccc1S(=O)(=O)NCc1cnc(N(C)C)n1C | -8.26%
21 | Nc1cc2c(nn1)CCN(C(=O)c1ccc(-c3ccco3)[nH]c1=O)C2 | -1.23%
22 | Cc1nc(C)c(CNCC2CCCn3ccnc32)s1 (centres undefined) | 15.5%
23 | CC(NC(=O)N1CCC[C@H]1CO)c1noc(-c2ccccc2)n1 (some centres undefined) | -3.8%

Row | Compound | cytotoxicity at 70.5 h
24 | Cc1cccc(N(CC(=O)N2CCCCC2)Cc2nc(=O)[nH][nH]2)c1 | -0.474%
25 | COC(=O)N1CCCN(C(=O)NC2CCc3ccccc3C2)CC1 (centres undefined) | -1.7%
26 | Cc1nsc(N2CCN(C(=O)Nc3cccc(F)c3)CC2)n1 | 13.5%
27 | CC1CCCN(c2ccccc2OCC(=O)NC2CC2)C1 (centres undefined) | 2.91%
28 | CCNC(=O)COc1ccccc1N1CCCC(C)C1 (centres undefined) | -1.31%
29 | CN(Cc1ccccc1F)C(=O)c1ccoc1 | -4.97%
30 | OC(CN1CCCc2cc(OC(F)F)ccc21)Cn1cccn1 (centres undefined) | 12.9%
31 | Cc1csc(C(C)(C)NCC(=O)N2CCCC(C(N)=O)C2)n1 (centres undefined) | 6.15%
32 | OC(CN1CCCc2ccc(F)cc21)Cn1cccn1 (centres undefined) | 7.05%
33 | C=C(C)COCCNC(=O)N1CCc2c(cccc2OC)C1 | 7.17%
34 | CC(Cn1ccnc1)NS(=O)(=O)Cc1ccc(F)cc1 (centres undefined) | -2.62%
35 | Cc1cc(Br)c(O)c(C(=O)N2CCC(CN3CCCCCC3)CC2)c1 | -5.82%
36 | Clc1ccc(CN2CCN(Cn3nccc3-c3cccnc3)CC2)s1 | 6.58%
37 | COC(=O)c1cccc(S(=O)(=O)NC(=O)c2ccccc2F)c1 | -5.66%
38 | Cc1nc(C(=O)Nc2cc(N3CCNC3=O)ccc2Cl)cs1 | -2.48%
39 | N#Cc1c(F)cccc1NCCCOCC1CCOCC1 | -3.66%
40 | CSc1ccc(OC(C)C(=O)Nc2cc[nH]n2)cc1 (centres undefined) | -2.7%
41 | Cc1noc2ncc(S(=O)(=O)Nc3cc(C(C)(C)C)n[nH]3)cc12 | -4.7%
42 | CSc1ccc(OC(C)C(=O)Nc2c(C)n[nH]c2C)cc1 (centres undefined) | -3.26%
43 | O=C(NS(=O)(=O)c1cccc(F)c1)c1ccccc1F | 13.1%
44 | CC(C)(C(=O)NCc1n[nH]c(=O)[nH]1)c1ccc(F)cc1 | -2.39%
45 | COCC(NC(=O)NCc1ccc(C)c(F)c1)c1ccco1 (centres undefined) | 1.44%
46 | COCC(NC(=O)NCc1cccc(C#N)c1)c1ccco1 (centres undefined) | -2.38%

Row | Compound | cytotoxicity at 70.5 h
47 | CCNC(=O)C1CCCN(c2ccc(C#N)cc2C(F)(F)F)C1 (centres undefined) | -4.1%
48 | COC(C)(C)CC(C)NC(=O)Nc1ccccn1 (centres undefined) | -2.34%
49 | Cc1csc(C(C)(C)NCC(=O)N2CCCC(C(F)(F)F)C2)n1 (centres undefined) | 8.68%
50 | CC(C)OCCOCC(O)CN(C)C(=O)Nc1ccc(F)cc1Cl (centres undefined) | -2.75%
51 | CC(C)(C)C(=O)N1CCN(Cn2nccc2-c2cccnc2)CC1 | -3.16%
52 | CC(C)C(C)(O)CNC(=O)Nc1ccccn1 (centres undefined) | -1.52%
53 | CCC[C@@H](NC(N)=O)C(=O)N1CCc2ccccc2CC1 | -3.57%
54 | CN(CC1CC1)C(=O)Cc1csc(-c2ncccn2)n1 | 0.625%
55 | NC(=O)CN(C(=O)c1cccc(C(F)(F)F)c1)C1CCCC1 | -6%
56 | COc1ccc(OC)c(CCNc2ncc(S(N)(=O)=O)s2)c1 | 0.207%
57 | COc1ccc(OC)c(CN(C)c2ncc(S(N)(=O)=O)s2)c1 | -10.9%
58 | CS(=O)(=O)c1nnc(NC(=O)CCc2cccs2)[nH]1 | 17.8%
59 | CN(CCn1cccn1)S(=O)(=O)c1ccc(C#N)cc1 | -8.98%
60 | CCS(=O)(=O)CCNC(=O)NCc1ccccc1-n1cccn1 | 2.95%
61 | CSC(CNS(=O)(=O)c1cnn(C)c1)c1cccc(Cl)c1 (centres undefined) | -6.72%
62 | CC(C)Oc1cccc(CC(=O)N(CC(N)=O)C2CCCC2)c1 | -6.57%
63 | CCOc1ccc(CN(C)C(=O)COc2ccc(C)nc2)cc1 | -8.96%
64 | COc1ccccc1C1(CNc2snc(Cl)c2C#N)CCCC1 | 19.8%
65 | CCCn1c(O)nnc1SCC1OCCc2ccccc21 (centres undefined) | -7.64%
66 | FC(F)(F)c1cc(NCCCn2cccn2)nc(-c2cccnc2)n1 | 22.2%
67 | Cn1c(N)nnc1SCC1OCCc2ccccc21 (centres undefined) | 6.39%
68 | Cn1cccc(NC(=O)N2CCC(CSc3ccccc3)C2)c1=O (centres undefined) | -13.5%
69 | Cc1cc(NCc2csc(-c3ccco3)n2)ccc1C(N)=O | -6.99%

Row | Compound | cytotoxicity at 70.5 h
70 | O=C(N1CCC(O)(C(F)(F)F)C1)C1(c2ccc(Cl)cc2)CC1 (centres undefined) | 18.9%
71 | CC(C)CC(C(=O)N1CCCSCC1)N1CCCCC1=O (centres undefined) | -3.18%
72 | Cc1ccc(CNc2cnn(CC(F)F)c2)cc1C | -0.638%
73 | CN1CCN(S(=O)(=O)c2cncc(F)c2)c2ccccc2C1 | -11.8%
74 | Cc1cc(F)c(S(=O)(=O)N(C)CCn2cccn2)cc1F | -9.11%
75 | Cc1ccc(OCc2nnc(SCC3CCCN(C)C3)o2)cc1 (centres undefined) | -8.56%
76 | O=C(Cc1ccccc1F)NCC1CCN(CCN2CCOCC2)C1 (centres undefined) | 2.01%
77 | CCc1nnsc1C(=O)N(C)Cc1ccco1 | -1.63%
78 | O=C(NCC1CCOC1)N1CCN(c2ncccn2)CC1 (centres undefined) | 0.214%
79 | CCNC(=O)CNS(=O)(=O)c1cc(Br)ccc1F | -2.68%
80 | CC1COCCN1C(=O)NCCn1ccnc1 (centres undefined) | -3.25%
81 | Cc1cc(C(=O)N2CCn3cc(CN4CCCCC4)nc3C2)no1 | -9.93%
82 | Cc1cc(C(=O)N2CCn3cc(CN(C)C)nc3C2)no1 | -7.02%
83 | O=C(c1ccccc1F)N1CC[C@@H]2CN(c3ncccn3)CCO[C@@H]2C1 | 4.95%
84 | CN1CCC2(CC1)OC(C(=O)NCc1cccnc1)Cn1ccnc12 (centres undefined) | -11.2%
85 | O=C(c1cnccn1)N1CCc2ncc(CN3CCOCC3)n2CC1 | -8.64%
86 | Cc1cccc(C(=O)N2CC[C@@H]3CN(c4ncccn4)CCO[C@@H]3C2)c1 | -9.91%
87 | CS(=O)(=O)NCc1nnc2n1CCN(Cc1nccs1)C2 | 5.64%
88 | O=C(Nc1cccnc1)[C@H]1C[C@@H]2CN(S(=O)(=O)C3CC3)C[C@H]1O2 | -4.16%
89 | CN(C)S(=O)(=O)N1C[C@H]2C[C@H](C(=O)Nc3cccnc3)[C@@H](C1)O2 | -8.64%
90 | CCCS(=O)(=O)N1C[C@H]2C[C@H](C(=O)Nc3cccnc3)[C@@H](C1)O2 | -4.17%
91 | Cc1nc(CNC(C)c2cccc(N3CCCC3=O)c2)cs1 (centres undefined) | -7.67%
92 | CCc1nc(CNC(C)c2cccc(N3CCCC3=O)c2)cs1 (centres undefined) | -12.3%

Row | Compound | cytotoxicity at 70.5 h
93 | COc1cccc(CNc2c(C)nn(C(C)C)c2C)c1 | -2.2%
94 | CC(C)NCc1nc(-c2ccc3c(c2)OCO3)c[nH]1 | -11.7%
95 | Cn1cc(CN2CCC3(CC2)CC(Nc2nccs2)CO3)cn1 (centres undefined) | 16.9%
96 | Cn1cc(C2COC3(CCN(C(=O)c4ccccn4)CC3)C2)cn1 (centres undefined) | -12.1%
97 | O=C(CC1CC1)N1CCc2ncc(CN3CCOCC3)n2CC1 | -13.3%
98 | O=C(N1CCOCC1)N1CCc2ncc(CN3CCCCC3)n2CC1 | -12.1%
99 | O=C(NCC1CC1)[C@@H]1CCO[C@@H]2CCN(Cc3ccsc3)C[C@H]21 | -10.2%
100 | COc1ccc(CN2CC[C@@H](O)[C@@H]2Cc2cnn(C)c2)cc1 | 21.7%
101 | O=C([C@H]1C[C@H]2OCC[C@H]2N(CCc2ccccc2)C1)N1CCCO1 | -3.87%
102 | Cn1cc(C[C@H]2[C@H](O)CCN2Cc2ccc(F)cc2)cn1 | 4.14%
103 | COc1ccc(CN2CC[C@H](O)[C@@H]2Cc2cnn(C)c2)cc1 | -11.4%
104 | Cc1cncc(C(=O)N2CC[C@@]3(C[C@H](NS(C)(=O)=O)CCO3)C2)c1 | -7.39%
105 | CNC(=O)C1Cn2ccnc2C2(CCN(Cc3cccs3)CC2)O1 (centres undefined) | 11.6%
106 | Cc1ccc(C(=O)N2CC[C@]3(C[C@@H](OCc4ccccn4)CO3)C2)nc1 | 12.9%
107 | O=C(NCc1ccccn1)[C@H]1COC[C@H]2CN(CC3CC3)C[C@H]21 | -10.6%
108 | O=C(NCc1ccccn1)[C@@H]1COC[C@H]2CN(C3CCC3)C[C@H]21 | -13.4%
109 | O=C(NC1CC1)[C@H]1C[C@H]2OCC[C@H]2N(Cc2ccc3ccccc3n2)C1 | -4.59%
110 | Cc1ccc(O[C@@H]2C[C@H]3CN(C(=O)Cc4ccccn4)CCN3C2)cc1 | 17.9%
111 | Cc1occc1C(=O)N1C[C@@H]2OCCN(CCN3CCCC3)[C@@H]2C1 | -3.12%
112 | CN(C)[C@@H]1CCN(CC2CC2)[C@H]1Cc1cnn(C)c1 | 0.964%
113 | CNC(=O)C1Cn2ccnc2C2(CCN(Cc3ccncc3)CC2)O1 (centres undefined) | -10.9%
114 | CCOCc1ccc(CNC2=NCCCN2)cc1 | -2.49%
